Source: US5607926A, “Cephalosporin antibiotics” (Microcide Pharmaceuticals, Inc., priority 1995, dated 1997)
In brackets after ≈: the same amount, converted by molar mass. Counter-ions that a name gives are not always drawn. Like-named read-outs stand apart in the source and are kept apart here.

Legend:
S. aureus ATCC 29213 = experiment: In vitro antibacterial evaluation, MIC by agar dilution, S. aureus ATCC 29213; type: cell-based; conditions: Staphylococcus aureus, ATCC29213
How it was run: (§1)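 Log-phase cultures (4-6 h broth growth) are adjusted to 0.5 McFarland and diluted to give roughly 10^4 cfu per 1 μL spot. Spots go onto Mueller-Hinton agar containing test compound in two-fold dilutions (128 to ≤0.25 μg/mL), then plates incubate 16-20 hours at 35°-36° C before MIC reading.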

S. aureus ATCC 25923 = experiment: In vitro antibacterial evaluation, MIC by agar dilution, S. aureus ATCC 25923; type: cell-based; conditions: Staphylococcus aureus, ATCC25923
How it was run: as §1

[1] = system: S. epidermidis ATCC 31432; experiment: In vitro antibacterial evaluation, MIC by agar dilution, S. epidermidis ATCC 31432; type: cell-based; conditions: Staphylococcus epidermidis, ATCC31432
How it was run: as §1

[2] = system: S. aureus 76 (Meth^R)(lac^+); experiment: In vitro antibacterial evaluation, MIC by agar dilution, S. aureus 76; type: cell-based; conditions: Staphylococcus aureus, read-out: MIC
How it was run: as §1

[3] = system: S. aureus Col8A (Meth^S)(lac^-); experiment: In vitro antibacterial evaluation, MIC by agar dilution, S. aureus Col8A; type: cell-based; conditions: Staphylococcus aureus
How it was run: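 Log-phase isolates were spot-inoculated at about 10^4 cfu onto Mueller-Hinton agar carrying duplicate two-fold compound levels, 128 μg/mL to ≤0.25 μg/mL, following NCCLS (1991). Plates were read after 16-20 h at 35°-36° C. The lowest growth-inhibiting concentration gave the MIC (μg/ml).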

S. haemolyticus (Meth^R) = experiment: In vitro antibacterial evaluation, MIC by agar dilution, S. haemolyticus; type: cell-based; conditions: Staphylococcus haemolyticus, read-out: MIC
How it was run: as §1

E. faecium ATCC 35667 = experiment: In vitro antibacterial evaluation, MIC by agar dilution, E. faecium ATCC 35667; type: cell-based; conditions: Enterococcus faecium, ATCC35667, read-out: MIC
How it was run: as §1

E. faecalis ATCC 29212 = experiment: In vitro antibacterial evaluation, MIC by agar dilution, E. faecalis ATCC 29212; type: cell-based; conditions: Enterococcus faecalis, ATCC29212
How it was run: as §1

E. coli ATCC 25922 = experiment: In vitro antibacterial evaluation, MIC by agar dilution, E. coli ATCC 25922; type: cell-based; conditions: Escherichia coli, ATCC25922, read-out: MIC
How it was run: as §1

P. aeruginosa ATCC 27853 = experiment: In vitro antibacterial evaluation, MIC by agar dilution, P. aeruginosa ATCC 27853; type: cell-based; conditions: Pseudomonas aeruginosa, ATCC27853, read-out: MIC
How it was run: as §1

[4] = system: methicillinsusceptible S. aureus strain ATCC 13709; experiment: In vivo antibacterial evaluation, murine model for lethal bacteremic peritonitis; set-up: species or system S. aureus in female Swiss-Webster mice; conditions: Staphylococcus aureus, ATCC13709, sc, 72 h, two equal SC doses at challenge and 2 hours later, mice, probit, read-out: ED50
Procedure: Groups of 5 female Swiss-Webster mice (Simonsen, Gilroy, Calif.) each are challenged by the intraperitoneal (IP) route with ten-fold increments of a bacterial inoculum. This permits calculation of the mean lethal dose (LD50) and the LD100. For preliminary evaluation of a new antibiotic, mice are challenged IP with an LD100 titer of bacteria. In two equal doses administered at the time of bacterial challenge and 2 hours later, groups of 10 mice each are treated subcutaneously with two-fold increments of the test drug and an antibiotic of known efficacy in mice and humans (i.e., positive control). Mice are observed for 72 h. Those alive at 72 h are considered long term survivors. The total drug dose in mg/kg that protects 50% of mice in a group from death is termed the mean protective dose (PD50). PD50 s are similarly determined for several pathogens. The quantitative endpoints for the new drug are then compared with those obtained with reference antibiotics.
Six ten-fold dilutions of inoculum suspended in 0.5 mL of sterilized 7% hog gastric mucin (Sigma) are injected IP in groups of 5 mice each. A control group of 5 mice receive mucin alone. Mice are observed for 72 h. Those alive at 72 h are considered long term survivors. The mean lethal dose (LD50) and 100% lethal dose (LD100) are determined by the probit test.
For antibiotic efficacy studies, mice are challenged IP with bacterial titers that will afford an LD100 for the test strain. In two equal doses administered at the time of bacterial challenge and 2 hours later, groups of 10 mice each are treated by the subcutaneous route (SC) with twofold increments of the test antibiotic; another group is treated similarly with a reference antibiotic of known efficacy in animals and man. Drug doses can range from 0.01 to 512 mg/kg. If the drug is poorly soluble, Tween 20 or propylene glycol will be employed to solubilize the drug. Animals are observed for 72 h. The 50% protective dose (PD50) is calculated in mg/kg by the probit method. The PD50 is the same as the 50% effective dose (ED50) and the 50% curative dose (CD50). Samples of blood from the hearts of all animals that die and from half the mice that survive are cultured on brain-heart infusion agar. Animals that received a protective dosage of the test drug will be alive at 72 h, although they may appear moderately ill to very ill during the observation period. […] Most of these mice will die within 6 to 48 h. Those alive at 72 h will be considered long term survivors.
data reported for challenge with methicillinsusceptible S. aureus strain

[5] = E. faecalis ATCC 29212, read-out: MIC
[6] = S. aureus ATCC 29213, read-out: MIC

Compound: CCN=C(NCC)SCc1ccccc1SC1=C(C(=O)O)N2C(=O)[C@@H](NC(=O)Cc3ccccc3)[C@H]2SC1 [Cmpd 74, (7R)-7-[(Phenylacetyl)amino]-3-(2-N,N'-diethylisothiouroniummethylphenylthio)-3-cephem-4-carboxylate, inner salt]
- MIC (S. aureus ATCC 29213): < 0.25 µg/mL
- MIC (S. aureus ATCC 25923): < 0.25 µg/mL
- MIC [1]: < 0.25 µg/mL
- MIC [2]: 32 µg/mL
- MIC [3]: < 0.25 µg/mL
- MIC (S. haemolyticus (Meth^R)): > 32 µg/mL
- MIC (E. faecium ATCC 35667): 2 µg/mL
- MIC (E. faecalis ATCC 29212; [5]): 1 µg/mL
- MIC (E. coli ATCC 25922): > 32 µg/mL
- MIC (P. aeruginosa ATCC 27853): > 32 µg/mL

Compound: O=C(Cc1ccccc1)N[C@@H]1C(=O)N2C(C(=O)O)=C(Sc3ccccc3CSc3ncccn3)CS[C@H]12 [Cmpd 75]
- MIC (S. aureus ATCC 29213): < 0.25 µg/mL
- MIC (S. aureus ATCC 25923): < 0.25 µg/mL
- MIC [1]: < 0.25 µg/mL
- MIC [2]: 32 µg/mL (≈ 58.1 µM)
- MIC [3]: < 0.25 µg/mL
- MIC (S. haemolyticus (Meth^R)): > 32 µg/mL
- MIC (E. faecium ATCC 35667): 2 µg/mL (≈ 3.63 µM)
- MIC (E. faecalis ATCC 29212; [5]): 1 µg/mL (≈ 1.82 µM)
- MIC (E. coli ATCC 25922): > 32 µg/mL
- MIC (P. aeruginosa ATCC 27853): > 32 µg/mL

Compound: CNC(=N)SCc1ccccc1SC1=C(C(=O)O)N2C(=O)[C@@H](NC(=O)Cc3ccccc3)[C@H]2SC1 [Cmpd 76, (7R)-7-[(Phenylacetyl)amino]-3-(2-N-methylisothiouroniummethylphenylthio)-3-cephem-4-carboxylate, inner salt]
- MIC (S. aureus ATCC 29213): < 0.25 µg/mL
- MIC (S. aureus ATCC 25923): < 0.25 µg/mL
- MIC [1]: < 0.25 µg/mL
- MIC [2]: 8 µg/mL
- MIC [3]: < 0.25 µg/mL
- MIC (S. haemolyticus (Meth^R)): 32 µg/mL
- MIC (E. faecium ATCC 35667): 2 µg/mL
- MIC (E. faecalis ATCC 29212; [5]): 1 µg/mL
- MIC (E. coli ATCC 25922): > 32 µg/mL
- MIC (P. aeruginosa ATCC 27853): > 32 µg/mL

Compound: Cc1nnc(SCc2ccccc2SC2=C(C(=O)O)N3C(=O)[C@@H](NC(=O)Cc4ccccc4)[C@H]3SC2)s1 [Cmpd 77]
- MIC (S. aureus ATCC 29213): < 0.25 µg/mL
- MIC (S. aureus ATCC 25923): < 0.25 µg/mL
- MIC [1]: < 0.25 µg/mL
- MIC [2]: 32 µg/mL (≈ 56.1 µM)
- MIC [3]: < 0.25 µg/mL
- MIC (S. haemolyticus (Meth^R)): > 32 µg/mL
- MIC (E. faecium ATCC 35667): 2 µg/mL (≈ 3.5 µM)
- MIC (E. faecalis ATCC 29212; [5]): 1 µg/mL (≈ 1.75 µM)
- MIC (E. coli ATCC 25922): > 32 µg/mL
- MIC (P. aeruginosa ATCC 27853): > 32 µg/mL

Compound: N#CCC(=O)N[C@@H]1C(=O)N2C(C(=O)O)=C(Sc3cccnc3-c3ccccc3)CS[C@H]12 [Cmpd 85, (7R)-7-[(Cyanoacetyl)amino]-3-(2-phenylpyridin-3-ylthio)-3-cephem-4-carboxylic acid]
- MIC (S. aureus ATCC 29213): < 0.25 µg/mL
- MIC (S. aureus ATCC 25923): < 0.25 µg/mL
- MIC [1]: < 0.25 µg/mL
- MIC [2]: 16 µg/mL (≈ 35.4 µM)
- MIC [3]: < 0.25 µg/mL
- MIC (S. haemolyticus (Meth^R)): 16 µg/mL (≈ 35.4 µM)
- MIC (E. faecium ATCC 35667): 2 µg/mL (≈ 4.42 µM)
- MIC (E. faecalis ATCC 29212; [5]): 4 µg/mL (≈ 8.84 µM)
- MIC (E. coli ATCC 25922): > 32 µg/mL
- MIC (P. aeruginosa ATCC 27853): > 32 µg/mL

Compound: Nc1nc(/C(=N/OCCF)C(=O)N[C@@H]2C(=O)N3C(C(=O)O)=C(Sc4ccnn4-c4ccccc4)CS[C@H]23)cs1 [Cmpd 90, (7R)-7-[(Z)-2-(aminothiazol-4-yl)-2-(2-fluoroethyloxyimino)acetamido]-3-(1-N-phenylpyrazol-5-ylthio)-3-cephem-4-carboxylic acid]
- MIC (S. aureus ATCC 29213; [6]): 1 µg/mL (≈ 1.7 µM)
- MIC (S. aureus ATCC 25923; S. aureus ATCC 25923, read-out: MIC): 0.5 µg/mL (≈ 0.848 µM)
- MIC ([1]; S. epidermidis ATCC 31432, read-out: MIC): < 0.25 µg/mL
- MIC [2]: 16 µg/mL (≈ 27.1 µM)
- MIC [3]: 1 µg/mL (≈ 1.7 µM)
- MIC (S. haemolyticus (Meth^R)): 32 µg/mL (≈ 54.3 µM)
- MIC (E. faecium ATCC 35667): 16 µg/mL (≈ 27.1 µM)
- MIC (E. faecalis ATCC 29212; [5]): 32 µg/mL (≈ 54.3 µM)
- MIC (E. coli ATCC 25922): 4 µg/mL (≈ 6.78 µM)
- MIC (P. aeruginosa ATCC 27853): 16 µg/mL (≈ 27.1 µM)

Compound: Nc1nc(-c2ccccc2)c(SC2=C(C(=O)O)N3C(=O)[C@@H](NC(=O)Cc4ccccc4)[C@H]3SC2)s1 [Cmpd 92, (7R)-7-[(Phenylacetyl)amino]-3-(2-amino-4-phenyl-thiazol-5-ylthio)-3-cephem-4-carboxylic acid]
- MIC (S. aureus ATCC 29213): < 0.25 µg/mL
- MIC (S. aureus ATCC 25923): < 0.25 µg/mL
- MIC [1]: < 0.25 µg/mL
- MIC [2]: 16 µg/mL (≈ 30.5 µM)
- MIC [3]: < 0.25 µg/mL
- MIC (S. haemolyticus (Meth^R)): 8 µg/mL (≈ 15.2 µM)
- MIC (E. faecium ATCC 35667): 16 µg/mL (≈ 30.5 µM)
- MIC (E. faecalis ATCC 29212; [5]): 16 µg/mL (≈ 30.5 µM)
- MIC (E. coli ATCC 25922): > 32 µg/mL
- MIC (P. aeruginosa ATCC 27853): > 32 µg/mL

Compound: O=C(Cc1ccccc1)N[C@@H]1C(=O)N2C(C(=O)O)=C(Sc3snnc3-c3ccccc3)CS[C@H]12 [Cmpd 93, (7R)-7-[(Phenylacetyl)amino]-3-(4-phenyl-1,2,3-thiadiazol-5-ylthio)-3-cephem-4-carboxylic acid]
- MIC (S. aureus ATCC 29213): < 0.25 µg/mL
- MIC (S. aureus ATCC 25923): < 0.25 µg/mL
- MIC [1]: < 0.25 µg/mL
- MIC [2]: 8 µg/mL (≈ 15.7 µM)
- MIC [3]: < 0.25 µg/mL
- MIC (S. haemolyticus (Meth^R)): 8 µg/mL (≈ 15.7 µM)
- MIC (E. faecium ATCC 35667): 0.5 µg/mL (≈ 0.979 µM)
- MIC (E. faecalis ATCC 29212): < 0.25 µg/mL
- MIC (E. coli ATCC 25922): > 32 µg/mL
- MIC (P. aeruginosa ATCC 27853): > 32 µg/mL

Compound: CC(C)N=C(NC(C)C)SCC(=O)N[C@@H]1C(=O)N2C(C(=O)O)=C(Sc3ccccc3CSC(=N)N)CS[C@H]12 [Cmpd 125, (7R)-7-[((N,N'-diisopropylisothiouronium)acetyl)amino]-3-(2-isothiouroniummethylphenylthio)-3-cephem-4-carboxylate, trifluoroacetic acid salt]
- MIC (S. aureus ATCC 29213; [6]): 0.5 µg/mL
- MIC [2]: 8 µg/mL
- MIC [3]: 0.5 µg/mL
- MIC (S. haemolyticus (Meth^R)): 8 µg/mL
- MIC (E. faecium ATCC 35667): 2 µg/mL
- MIC (E. faecalis ATCC 29212; [5]): 0.25 µg/mL
- MIC (E. coli ATCC 25922): > 32 µg/mL
- MIC (P. aeruginosa ATCC 27853): > 32 µg/mL
- ED50 [4]: > 10 mg/kg

Compound: CSCC(=O)N[C@@H]1C(=O)N2C(C(=O)O)=C(Sc3ccccc3CSC(=N)N)CS[C@H]12 [Cmpd 127, (7R)-7-[(methylthioacetyl)amino]-3-(2-isothiouroniummethylphenylthio)-3-cephem-4-carboxylate, inner salt]
- MIC (S. aureus ATCC 29213; [6]): ≤ 0.06 µg/mL
- MIC [2]: 8 µg/mL
- MIC [3]: ≤ 0.06 µg/mL
- MIC (E. faecium ATCC 35667): 1 µg/mL
- MIC (E. faecalis ATCC 29212; [5]): 1 µg/mL
- MIC (E. coli ATCC 25922): > 32 µg/mL
- MIC (P. aeruginosa ATCC 27853): > 32 µg/mL
- ED50 [4]: 0.59 mg/kg
